According to patent US7022681B2, “Partial and full agonists of A1 adenosine receptors” (CV Therapeutics, Inc., priority 2002, dated 2006):

Legend:
seizures induced by DMCM = conditions: experimental models of epilepsy; cited from earlier work
awake rats [1] = test: Antilipolytic properties: NEFA concentration in awake rats; assay type: in vivo, rat; conditions: oral administration
Source text: • Animals. Male Sprague-Dawley rats (380–420 g) were purchased from Simonsen Laboratories (Gilroy, Calif.). All animals received humane care according to the guidelines set forth in The Principles of Laboratory Animal Care formulated by the National Society for Medical Research and the Guide for the Care and Use of Laboratory Animals prepared by the Institute of Laboratory Animal Resources and published by the National Institute of Health (NIH Publication 86-23, revised 1996). • Isolation of Rat Epididymal Adipocytes. Adipocytes were isolated from the epididymal fat pads of rats as described previously (Rodbell, 1964). Briefly, rats were anesthetized using methoxyfluorane and killed by exsanguination. Epididymal fat tissue was removed and placed into a modified Krebs (KRH) solution containing NaCl (100 mM), KCl (4.7 mM), CaCl2 (2.5 mM), NaHCO3 (3.6 mM), MgSO4 (1.19 mM), KH2PO4 (1.18 mM), dextrose (5 mM), pyruvic acid (5 mM), ascorbic acid (1 mM), and HEPES (5 mM), pH 7.4. Visible blood vessels were dissected and excised, and the adipose tissue was minced. Minced tissue was digested with 25 ml of fresh KRH solution containing type I collagenase (1 mg/ml), fatty-acid free BSA [1% (wt/vol)] and nicotinic acid (2_M, to inhibit lipolysis) for 40 to 60 minutes at 37° C. with continuous gentle shaking. The cell suspension was filtered through a nylon-mesh (210_m) to remove undigested tissue fragments. The cell filtrate was washed three times using KRH solution containing 1% fatty acid-free BSA at 37° C. The final adipocyte suspension was either diluted in fresh KRH solution with 1% fatty acid-free BSA for use in cAMP experiments, or used to prepare membranes for radioligand binding assays. • cAMP Assays in Isolated Rat Adipocytes. Aliquots (100 μl, 45,000–90,000 cells) of the freshly prepared adipocyte cell suspension were placed into wells of 24-well cell culture plates containing 0.4 ml of KRH solution containing fatty acid-free BSA (1%), ascorbic acid (1 mM), rolipram (10 μM), cilostamide (1 μM), adenosine deaminase (2 U/ml), and appropriate A1 adenosine receptor agonist(s). An aliquot of 0.5 ml of KRH solution containing 60 nM isoproterenol was added to each well, and incubations proceeded for 4 min in an orbital shaker bath maintained at 37° C. Assays were terminated by the addition of 200 μl of 300 mM HCl to each well to lyse the cells. The concentration of cAMP in the cell lysate was determined using colorimetric direct cAMP kits (Assay Designs, Inc., Ann Arbor, Mich.). Adipocyte Membrane Preparation and Competition Binding • Assays. Freshly isolated adipocytes were added to a chilled solution containing sucrose (0.25 M), EDTA (1 mM), and Tris-HCl (10 mM, pH 7.4) and homogenized with 10 strokes using a motordriven tissue grinder. The homogenate was cooled on ice and the fat layer was discarded. The homogenate was then centrifuged at 500 g for 10 min at 4° C. The supernatant under the fat layer was removed, resuspended in fresh buffer, and homogenized a second time with six strokes using the tissue grinder. Cell membranes were collected by centrifugation of the homogenate at 15,000 g for 15 min. The final membrane pellet was resuspended in a solution containing sucrose (0.25 M), phenylmethylsulfonyl fluoride (0.1 mM), leupeptin (5 μg/ml), aprotinin ([…]), adenosine deaminase (2 U/ml), and Tris-HCl (10 mM) buffer, pH 7.4. The membrane suspension was frozen and stored in liquid nitrogen. For competition binding assays, membrane suspensions were thawed and incubated for 2 hours at room temperature in Tris-HCl (50 mM) buffer containing ADA (1 U/ml), guanosine 5-(imido)triphosphate ([…]), and [3H]CPX (1–3nM) and progressively higher concentrations of the competing agent. At the end of incubation, free radioligand was separated from membrane-bound radioligand by filtration through GF/C glass fiber filters (Whatman, Maidstone, UK) using a tissue harvester (Brandel, Inc., Gaithersburg, Md.). Radioactivity was quantified by liquid scintillation counting. […]

awake rats [2] = test: Heart rate in awake rats (telemetry); assay type: in vivo, rat; conditions: dose levels of 1 mg/kg, 2.5 mg/kg, and 5 mg/kg
Experimental: Heart rate was measured from rats chronically instrumented with telemetry transmitters. For transmitter implantation, a midline laparotomy was performed on anesthetized rats and a transmitter for ECG recording was sutured to the abdominal wall. The two electrocardiographic leads were tunneled through the wall, passed subcutaneously (one to the left shoulder, the other to the right thigh), and secured in place with sutures. Heart rates of awake rats were measured using a Dataquest ART Gold System (Data Sciences International, St. Paul, Minn.). Cardiac electrical activity was recorded for 10-s periods and used to calculate heart rate in beats per minute. After recording of a baseline heart rate, either vehicle (0.9% DMSO in saline, 0.5 ml) or a compound of Formula I was injected into the intraperitoneal cavity of each rat, and heart rate was monitored at intervals for an additional 3 hours.
The effects of a compound of Formula I on heart rate and serum NEFA reduction concentration were determined in separate groups of rats to avoid the effects of animal handling and blood sampling on heart rate. Three days before an experiment, a catheter ([…] outer diameter) was implanted in the left common carotid artery of each rat using aseptic conditions and sterile technique. […] Serum NEFA concentration was determined using an enzymatic colorimetric assay kit (Wako Chemicals, Richmond, Va.).

A1 receptor = A1 receptor (Cavia porcellus, UniProt P47745); conditions: chronic administration for 7 days, guinea pigs; cited from earlier work
Chain of A1 receptor (P47745 whole entry): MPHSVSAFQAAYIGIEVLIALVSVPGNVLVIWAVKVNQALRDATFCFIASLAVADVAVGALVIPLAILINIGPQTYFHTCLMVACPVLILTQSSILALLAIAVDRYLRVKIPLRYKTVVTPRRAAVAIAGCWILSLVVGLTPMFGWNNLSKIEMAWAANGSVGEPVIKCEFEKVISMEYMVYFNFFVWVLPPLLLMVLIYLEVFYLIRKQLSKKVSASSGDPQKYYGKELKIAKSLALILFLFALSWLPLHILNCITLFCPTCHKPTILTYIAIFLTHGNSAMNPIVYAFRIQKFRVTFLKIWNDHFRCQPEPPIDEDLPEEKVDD

Cc1ccccc1CNc1ncnc2c1ncn2[C@@H]1O[C@H](CO)[C@@H](O)[C@H]1O [metrifudil]
anticonvulsant activity against seizures induced by DMCM (seizures induced by DMCM): potent anticonvulsant

O[C@@H]1[C@H](O)[C@@H](C#Cc2ccccc2F)O[C@H]1n1cnc2c(NC3CCCC3)ncnc21 [(4S,2R,3R,5R)-2-[6-(cyclopentylamino)purin-9-yl]-5-{2-[2-fluorophenyl]-ethynyl}oxolane-3,4-diol]
initial reduction of non-esterified free fatty acid (NEFA) (awake rats [1]; 1 mg/Kg): 40% | time in which plasma levels of NEFA returned to normal (awake rats [1]; 1 mg/Kg): 2 h | time the NEFA reduction was maintained (awake rats [1]; 1 mg/Kg): 1 h | initial reduction of non-esterified free fatty acid (NEFA) (awake rats [1]; 2.5 mg/Kg): 60% | time in which plasma levels of NEFA returned to normal (awake rats [1]; 2.5 mg/Kg): 4 h | time the NEFA reduction was maintained (awake rats [1]; 2.5 mg/Kg): 1.5 h | effect on heart rate (awake rats [2]): no effect on heart rate was observed

C[C@H](Cc1ccccc1)Nc1ncnc2c1ncn2[C@@H]1O[C@H](CO)[C@@H](O)[C@H]1O [R-PIA, R-N6-phenylisopropyladenosine]
desensitization in terms of the dromotropic response (A1 receptor): desensitization of the A1 receptor
